Values joined by “and” are separate entries in the source; they are usually repeats but may differ in a detail not shown here. Identical values can stand only once.
How the values were obtained:
Assay in all cases: normalised viability (% of control), CellTiter-Blue; higher = more viable cells (about 100 = DMSO control)
Conditions in all cases: incubation time: 72 h
CAL-85-1 [1] = system: CAL-85-1
Procedure: (§1)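 DSRT, CellTiter-Blue viability, 72 h incubation. Signal is normalised to DMSO and benzethonium chloride controls. Value is the normalised response at dose 6.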

CAL-148 [2] = system: CAL-148
Procedure: as §1

MDA-MB-453 [3] = system: MDA-MB-453
Procedure: as §1

HDQ-P1 [4] = system: HDQ-P1
Procedure: as §1

CAL-51 [5] = system: CAL-51
Procedure: as §1

DU-4475 [6] = system: DU-4475
Procedure: as §1

CAL-85-1 [7] = system: CAL-85-1; remark: listed apart in the source
Procedure: (§2)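 DSRT, CellTiter-Blue viability, 72 h incubation. Signal is normalised to DMSO and benzethonium chloride controls. Value is the normalised response at dose 7.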

CAL-148 [8] = system: CAL-148; remark: listed apart in the source
Procedure: as §2

MDA-MB-453 [9] = system: MDA-MB-453; remark: listed apart in the source
Procedure: as §2

HDQ-P1 [10] = system: HDQ-P1; remark: listed apart in the source
Procedure: as §2

CAL-51 [11] = system: CAL-51; remark: listed apart in the source
Procedure: as §2

DU-4475 [12] = system: DU-4475; remark: listed apart in the source
Procedure: as §2

CAL-85-1 [13] = system: CAL-85-1; remark: listed apart in the source
Procedure: (§3)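 DSRT, CellTiter-Blue viability, 72 h incubation. Signal is normalised to DMSO and benzethonium chloride controls. Value is the normalised response at dose 8.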

CAL-148 [14] = system: CAL-148; remark: listed apart in the source
Procedure: as §3

MDA-MB-453 [15] = system: MDA-MB-453; remark: listed apart in the source
Procedure: as §3

CAL-51 [16] = system: CAL-51; remark: listed apart in the source
Procedure: as §3

DU-4475 [17] = system: DU-4475; remark: listed apart in the source
Procedure: as §3

Row | Structure (SMILES) | normalised viability (CAL-85-1 [1]) | normalised viability (CAL-148 [2]) | normalised viability (MDA-MB-453 [3]) | normalised viability (HDQ-P1 [4]) | normalised viability (CAL-51 [5]) | normalised viability (DU-4475 [6]) | further results
1 | O=S(=O)(c1cccc2cnccc12)N1CCCNCC1 [Fasudil] (300 nM) | 97.2% | 83.7% | 106% | 90.9% | 107% | 117% | –
2 | O=S(=O)(c1cccc2cnccc12)N1CCCNCC1 [Fasudil] (1000 nM) | – | – | – | – | – | – | normalised viability (CAL-85-1 [7]): 101%; normalised viability (CAL-148 [8]): 90.7%; normalised viability (MDA-MB-453 [9]): 101%; normalised viability (HDQ-P1 [10]): 111%; normalised viability (CAL-51 [11]): 115%; normalised viability (DU-4475 [12]): 120%
3 | CS(=O)(=O)N1CCN(Cc2cc3nc(-c4cccc5[nH]ncc45)nc(N4CCOCC4)c3s2)CC1 [GDC-0941] (300 nM) | 73.2% | 83.5% | 43.4% | 37.6% | 61% | 83.2% | –
4 | CS(=O)(=O)N1CCN(Cc2cc3nc(-c4cccc5[nH]ncc45)nc(N4CCOCC4)c3s2)CC1 [GDC-0941] (1000 nM) | – | – | – | – | – | – | normalised viability (CAL-85-1 [7]): 58.4%; normalised viability (CAL-148 [8]): 54%; normalised viability (MDA-MB-453 [9]): 12%; normalised viability (HDQ-P1 [10]): 25%; normalised viability (CAL-51 [11]): 39.5%; normalised viability (DU-4475 [12]): 105%
5 | Cc1c(CN2CCN(C(=O)[C@H](C)O)CC2)sc2c(N3CCOCC3)nc(-c3cnc(N)nc3)nc12 [GDC-0980] (300 nM) | 62% | 52.1% | 18.3% | 29.7% | 38.7% | 68.3% | –
6 | Nc1cccc2c1CN(C1CCC(=O)NC1=O)C2=O (configuration not stated) [Lenalidomide] (300 nM) | 87.3% and 90.2% | 92% and 96.1% | 97.7% and 101% | 66.2% and 69.3% | 107% and 103% | 103% and 86.6% | –
7 | C[C@]12O[C@H](C[C@]1(O)CO)n1c3ccccc3c3c4c(c5c6ccccc6n2c5c31)CNC4=O [Lestaurtinib] (30 nM) | 114% | 107% | 105% | 84.5% | 111% | 91.3% | –
8 | O=C1c2c(O)ccc(O)c2C(=O)c2c(NCCNCCO)ccc(NCCNCCO)c21 [Mitoxantrone] (30 nM) | 73.1% | 56.1% | 98% | 63.9% | 42.9% | 21.7% | –
9 | Nc1ccccc1NC(=O)c1ccc(CNc2nccc(-c3cccnc3)n2)cc1 [Mocetinostat] (300 nM) | 85.8% | 87.5% | 69% | 57.8% | 92.9% | 81.9% | –
10 | COc1nc(N)nc2c1ncn2[C@@H]1O[C@H](CO)[C@@H](O)[C@@H]1O [Nelarabine] (300 nM) | 100% and 97.8% | 88.9% and 89.2% | 102% and 99.1% | – | 101% and 97.9% | 113% and 116% | –
11 | Cc1ccc(Nc2nccc(N(C)c3ccc4c(C)n(C)nc4c3)n2)cc1S(N)(=O)=O [Pazopanib] (300 nM) | 96.1% | 85.7% | 88.4% | 64% | 95.6% | 102% | –
12 | O=C(CCBr)N1CCN(C(=O)CCBr)CC1 [Pipobroman] (300 nM) | 101% | 107% | 113% | 87.1% | 106% | 110% | –
13 | c1cc(CN2CCCNCCNCCCNCC2)ccc1CN1CCCNCCNCCCNCC1 [Plerixafor] (75 nM) | 95% | 85.9% | 93.3% | 84% | 103% | 101% | –
14 | c1cc(CN2CCCNCCNCCCNCC2)ccc1CN1CCCNCCNCCCNCC1 [Plerixafor] (250 nM) | – | – | – | – | – | – | normalised viability (CAL-85-1 [7]): 94.3%; normalised viability (CAL-148 [8]): 84.4%; normalised viability (MDA-MB-453 [9]): 104%; normalised viability (HDQ-P1 [10]): 121%; normalised viability (CAL-51 [11]): 105%; normalised viability (DU-4475 [12]): 97.2%
15 | C[C@]12C=CC(=O)C=C1CC[C@@H]1[C@@H]2[C@@H](O)C[C@@]2(C)[C@H]1CC[C@]2(O)C(=O)CO [Prednisolone] (300 nM) | 110% | 105% | 79.4% | 64.2% | 104% | 113% | –
16 | CNC(=O)c1cc(Oc2ccc(NC(=O)Nc3ccc(Cl)c(C(F)(F)F)c3)cc2)ccn1 [Sorafenib] (30 nM) | 97.6% and 103% | 109% and 91.4% | 106% and 99.1% | 81.1% and 72.2% | 108% and 101% | 101% and 115% | –
17 | CNC(=O)c1cc(Oc2ccc(NC(=O)Nc3ccc(Cl)c(C(F)(F)F)c3)cc2)ccn1 [Sorafenib] (300 nM) | – | – | – | – | – | – | normalised viability (CAL-85-1 [13]): 83.4% and 99.7%; normalised viability (CAL-148 [14]): 93.4% and 99%; normalised viability (MDA-MB-453 [15]): 96.8% and 108%; normalised viability (CAL-51 [16]): 109% and 102%; normalised viability (DU-4475 [17]): 104% and 99.8%
18 | CCN(CC)CCNC(=O)c1c(C)[nH]c(/C=C2\C(=O)Nc3ccc(F)cc32)c1C [Sunitinib] (30 nM) | 96.7% and 96.2% | 99.5% and 101% | 93.3% and 81.3% | 74.4% and 92.3% | 111% and 91.1% | 84.4% and 92.7% | –
19 | CC[C@@]1(O)C(=O)OCc2c1cc1n(c2=O)Cc2cc3c(CN(C)C)c(O)ccc3nc2-1 [Topotecan] (30 nM) | 95.9% | 71.3% | 90.6% | 82.3% | 94.8% | 56.8% | –

From the supplement of paper PMC4862054
